The conditions of series [1]: cited from earlier work.
The nature of series [2]: Dissolution in NaCl solutions. To be noted: saturated NaCl solutions (~0.35 g/ml in water). The format is physicochemical. The source says:
[…] This is a characteristic behavior of liquid complex coacervate system (See Wang, Q. & Schlenoff, J. B. The Polyelectrolyte Complex/Coacervate Continuum. Macromolecules 47, 3108-3116 (2014); de Kruif, C. G., Weinbreck, F. & de Vries, R. Complex coacervation of proteins and anionic polysaccharides. Current Opinion in Colloid & Interface Science 9, 340-349 (2004); Veis, A. & Aranyi, C. PHASE SEPARATION IN POLYELECTROLYTE SYSTEMS. I. COMPLEX COACERVATES OF GELATIN. J. Phys. Chem. 64, 1203-1210 (1960)).

Series [3] can be described thus: Degree of polymerization of PAC by titration. Format: physicochemical. As to conditions: native sucralfate. As to the method: Experiments were performed to determine the degree of polymerization in AF-LuCI by using the titration-based methods as described in Nail, S. L., White, J. L. & Hem, S. L. Structure of Aluminum Hydroxide Gel I. Initial Precipitate. Journal of Pharmaceutical Sciences 65, 1188-1191 (1976); and Hem, J. D. & Roberson, C. E. Form and stability of aluminum hydroxide complexes in dilute solution. Geol Surv Water-Supply Pap (US); (United States) (1967). The degree of polymerization of PACs in AF-LuCI and sucralfate molecule was determined using titration method based on the reversible protonation of hydroxo linkages in the PAC backbone. Approximately 10 mg of AF-LuCI were treated with 0.1N, 0.2N, 0.3N, 0.4N and 0.5N HCl solutions in different tubes. The samples were vortexed for 5 seconds followed by 1-hour incubation. The supernatant of each sample was then collected and the pH was measured using a pH meter. The same procedures were performed with sucralfate. The pH of the HCl solutions was measured as the control group and the difference between the control and the treated groups was calculated. The difference in pH corresponds to the proton consumption and the amount of hydroxo linkages that were then used to calculate the number of aluminum per molecule.

Series [4] can be described thus: Integrative barrier property test, glucose permeation in Franz-cell system. How it is done:
To examine the barrier properties of pastes formed from the new hydratable compositions in vitro, a mucin-coated membrane was prepared to mimic the mucus surface of the intestine. Specifically, a cellulose nitrate membrane (pore size: 0.2 μm, Whatman, Germany) was incubated in a 3% w/v porcine stomach mucin (Sigma Aldrich, USA) solution in PBS (pH 7.4) and gently shaken for 2 hours at room temperature. The membrane was washed with distilled deionized water (DDW, pH 5.5) to remove the excess mucin solution. The mucin-coated membranes were used within 1 hour following preparation.
To measure the thickness of the mucin layer, the mucin-coated membrane was lyophilized and imaged using scanning electron microscope (SEM) and the thickness of randomly selected positions was examined (average mucin layer thickness: ~100 μm). To test the nutrient barrier properties, 10 mg of sucralfate or AF-LuCI was added evenly to a mucin-coated membrane and vertically tilted for 1 minute. […]
The permeation tests were performed in triplicate for each material. The glucose concentration was measured using high performance liquid chromatography (HPLC, Agilent, USA) with an analytical C18 column (Zorbax Eclipse XDB-C18, Agilent). […]

Another series has as its system Sprague-Dawley (SD) rats. Description: microCT imaging of coating in the GI tract. The format is in vivo, rat. To be noted: gavaged to SD rats. As to the method:
Sprague-Dawley (SD) rats were gavaged into the stomach with hydrated AF-LuCI pastes and imaged using micro-computed tomography (microCT). AF-LuCI pastes could be visualized on gastro-intestinal tissues without additional contrast agents owing to the presence of aluminum. For these experiments, rats were fasted overnight and gavaged directly into the stomach with 450 mg/kg rat of AF-LuCI paste hydrated in 0.9 w/v % normal saline solution. After 1 hr and 5 hr, the rats were anesthetized using isoflurane and imaged using microCT. […] FIG. 18A is a coronal plane view of SD rats gavaged with AF-LuCI 1 hr before the imaging. AF-LuCI formed a layer in stomach, duodenum and proximal intestine. FIGS. 18B and 18C are 3-dimentional views of SD rats gavaged with AF-LuCI (FIG. 18B) 1 hr and (FIG. 18C) 5 hr before the microCT imaging. AF-LuCI is attached on stomach, duodenum and proximal intestine at least for 5 hrs after gavage while sucralfate only formed sparsely scattered aggregates on the healthy mucosa

Another series deals with SD rats. In words: OGTT with different viscosity, dose and dosing schedule (Example 12). Format: in vivo, rat. To be noted: normal SD rats. How it is done:
Experiments were then performed to assess if the AF-LuCI coating could lower glucose response. To evaluate the in vivo effect of the barrier coating from AF-LuCI on postprandial glucose response, SD rats were pre-gavaged with the AF-LuCI pastes and standard OGTT was performed. AF-LuCI at different dosage but also different viscosity. It was hypothesized that low viscosity product may lead to barrier formation in larger area and earlier duodenal coating (onset of action). For these studies, rats were fasted overnight and gavaged with AF-LuCI pastes (dose: 450-2,700 mg/kg rat; viscosity: high and low), or saline as a control. One or three hours later, glucose solution (2 g/kg rat) was gavaged and changes in serum glucose levels measured every 30 minutes over the subsequent 120 min (n=4 per arm). Tail vein blood was used to measure glucose levels using glucometer. […] The time gap between AF-LuCI administration and glucose gavage also affects the reduction of blood glucose responses differently depending on the AF-LuCI formulations (FIG. 19C). 3 hr after treatment with 450 mg/kg rat lower viscosity AF-LuCI (i.e. 5 Pa·s), the reduction in glucose response decreased to 7%. In FIG. 19, AF-LuCI fabricated using 0.4N, 0.5N, and 0.6N HCl solution and rehydrated in 0.9 w/v % normal saline is denoted as “Viscosity High”, “Viscosity Mid”, and “Viscosity Low”, respectively.

Series [5] can be described thus: Aluminum release in simulated GI fluids. To be noted: simulated gastric fluid (SGF, pH 1.0). Format: physicochemical.
Series [6] is described as follows: Film thickness of hydrated paste on mucus-coated cellulose nitrate membrane. Format: physicochemical. As to the method:
Five hundred milligrams of AF-LuCI (excess) was added onto mucus-coated cellulose nitrate membrane (disk shape with 2 cm diameter) and DDW (pH 5.5), SGF (pH 1.0), or SIF (pH 6.5) was added immediately. After AF-LuCI becomes a paste and flow to form a layer (3-5 minutes), supernatant was removed and the paste-coated membrane was quickly frozen in −80° C. freezer to measure the thickness. The thickness of the mucus-coated cellulose nitrate membrane without AF-LuCI was separately measured as a baseline.

Turning to sucralfate, the “aluminum content of sucralfate (USP regulation)” value in series [1] is reported as 15.5-18.5 w/w % of the total weight. The amount dissolved entry in series [2] is on record as “Less than 5 w/w %”. In addition, in series [3], the “number of aluminum ions per molecule” value was found to be 56.1±3.0 aluminum per molecule. Moreover, the glucose penetration blocked in series [4] (SGF, 10 mg on mucin-coated membrane, 120 g/L glucose, 5 minutes) is given as ~ 60%. Also, in series [4] (applied on mucus-coated membrane in pH 1.0, then pH 4.0), the glucose blocked was determined as 16.5%. The “layer formation in the GI tract (microCT)” value in the series on Sprague-Dawley (SD) rats is on record as “did not form a layer”. Further, the “area under curve (AUC) in OGTT vs saline treated group” value in the series on SD rats is reported as “no significant difference”. For the same substance, the release of aluminum in series [5] is reported as 15 w/w % of total aluminum content. Also, the layer formation entry in series [6] (distilled water or SIF) was “did not form any layer”. Moreover, in series [6] (only in SGF (pH 1.0)), the thickness of layer is on record as ~ 250 μm.
